This passage reports deltaTm results from ChEMBL document CHEMBL5550200, “Back-Pocket Optimization of 2-Aminopyrimidine-Based Macrocycles Leads to Potent EPHA2/GAK Kinase Inhibitors” (J Med Chem, 2024).

Assay [1] concerns the target Ephrin type-A receptor 4 (Homo sapiens, UniProt P54764). Description: Induction of stabilization of recombinant EPHA4 (unknown origin) assessed as change in melting temperature by differential scanning fluorimetry assay. Background: Differential scanning fluorimetry follows unfolding on heating by fluorescence.
In assay [2] the target is Fibroblast growth factor receptor 2 (Homo sapiens) (UniProt P21802).
Fibroblast growth factor receptor 2 (Homo sapiens), sequence (P21802 22-821 limits assumed): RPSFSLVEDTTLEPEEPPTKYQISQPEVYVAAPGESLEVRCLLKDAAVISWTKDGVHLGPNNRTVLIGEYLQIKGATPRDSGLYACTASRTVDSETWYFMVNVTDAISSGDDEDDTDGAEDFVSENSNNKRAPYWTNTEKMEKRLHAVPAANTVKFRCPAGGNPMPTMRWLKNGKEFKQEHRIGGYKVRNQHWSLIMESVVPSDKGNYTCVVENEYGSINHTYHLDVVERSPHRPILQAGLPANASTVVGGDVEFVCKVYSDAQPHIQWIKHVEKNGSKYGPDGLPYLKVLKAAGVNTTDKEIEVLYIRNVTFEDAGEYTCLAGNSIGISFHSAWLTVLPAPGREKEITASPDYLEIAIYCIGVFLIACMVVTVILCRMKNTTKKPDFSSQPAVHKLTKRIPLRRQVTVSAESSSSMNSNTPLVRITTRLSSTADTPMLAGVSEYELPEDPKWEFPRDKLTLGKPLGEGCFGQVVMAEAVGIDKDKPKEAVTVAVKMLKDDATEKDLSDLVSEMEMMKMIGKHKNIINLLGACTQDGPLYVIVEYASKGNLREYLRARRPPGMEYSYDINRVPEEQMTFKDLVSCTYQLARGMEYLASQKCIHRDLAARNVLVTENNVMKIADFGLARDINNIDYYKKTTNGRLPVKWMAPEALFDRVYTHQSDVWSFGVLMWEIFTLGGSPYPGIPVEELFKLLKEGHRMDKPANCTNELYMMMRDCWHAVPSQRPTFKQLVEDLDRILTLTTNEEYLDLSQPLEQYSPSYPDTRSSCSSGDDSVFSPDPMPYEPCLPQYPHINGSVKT
Description: Induction of stabilization of recombinant FGFR2 (unknown origin) assessed as change in melting temperature by differential scanning fluorimetry assay
The target of assay [3] is Vascular endothelial growth factor receptor 1 (Homo sapiens, UniProt P17948). In words: Induction of stabilization of recombinant FLT1 (unknown origin) assessed as change in melting temperature by differential scanning fluorimetry assay.
Vascular endothelial growth factor receptor 1, sequence (P17948 whole entry): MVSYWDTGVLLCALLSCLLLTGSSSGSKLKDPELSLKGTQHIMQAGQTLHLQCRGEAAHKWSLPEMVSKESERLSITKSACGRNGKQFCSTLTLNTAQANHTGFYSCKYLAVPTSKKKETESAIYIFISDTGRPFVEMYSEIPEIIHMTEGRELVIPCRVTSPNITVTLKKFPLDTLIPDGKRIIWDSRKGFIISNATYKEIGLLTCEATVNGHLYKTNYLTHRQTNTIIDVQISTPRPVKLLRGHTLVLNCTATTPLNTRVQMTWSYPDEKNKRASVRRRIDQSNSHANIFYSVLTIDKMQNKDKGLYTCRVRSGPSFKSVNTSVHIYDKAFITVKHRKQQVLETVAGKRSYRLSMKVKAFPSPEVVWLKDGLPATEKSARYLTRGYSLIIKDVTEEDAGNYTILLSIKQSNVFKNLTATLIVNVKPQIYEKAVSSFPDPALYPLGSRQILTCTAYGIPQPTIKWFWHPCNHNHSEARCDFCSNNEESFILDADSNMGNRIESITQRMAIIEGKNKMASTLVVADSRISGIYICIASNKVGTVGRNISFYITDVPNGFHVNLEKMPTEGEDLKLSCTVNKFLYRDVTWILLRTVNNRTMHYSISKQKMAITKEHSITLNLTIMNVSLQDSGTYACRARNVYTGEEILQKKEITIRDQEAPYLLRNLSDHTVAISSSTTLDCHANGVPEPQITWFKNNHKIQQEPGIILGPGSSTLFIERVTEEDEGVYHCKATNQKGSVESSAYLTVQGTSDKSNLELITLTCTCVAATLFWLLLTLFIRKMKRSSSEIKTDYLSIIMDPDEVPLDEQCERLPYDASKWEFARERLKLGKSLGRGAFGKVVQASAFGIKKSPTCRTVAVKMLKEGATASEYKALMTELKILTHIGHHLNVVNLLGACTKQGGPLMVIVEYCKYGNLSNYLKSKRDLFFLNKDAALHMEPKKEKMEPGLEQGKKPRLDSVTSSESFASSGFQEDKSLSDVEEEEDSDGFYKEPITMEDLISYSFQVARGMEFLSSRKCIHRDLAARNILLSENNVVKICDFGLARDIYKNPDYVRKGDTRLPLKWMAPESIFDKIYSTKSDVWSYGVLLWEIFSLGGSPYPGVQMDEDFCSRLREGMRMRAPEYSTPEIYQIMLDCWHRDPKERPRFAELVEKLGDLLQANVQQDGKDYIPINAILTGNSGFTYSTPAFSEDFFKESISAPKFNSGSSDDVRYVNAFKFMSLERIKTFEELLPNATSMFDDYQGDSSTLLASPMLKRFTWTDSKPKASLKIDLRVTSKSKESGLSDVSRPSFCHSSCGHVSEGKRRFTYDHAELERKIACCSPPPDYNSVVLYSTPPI
Assay [4] deals with Ephrin type-A receptor 5 (Homo sapiens) (UniProt P54756).
Ephrin type-A receptor 5 (Homo sapiens), sequence (P54756 whole entry): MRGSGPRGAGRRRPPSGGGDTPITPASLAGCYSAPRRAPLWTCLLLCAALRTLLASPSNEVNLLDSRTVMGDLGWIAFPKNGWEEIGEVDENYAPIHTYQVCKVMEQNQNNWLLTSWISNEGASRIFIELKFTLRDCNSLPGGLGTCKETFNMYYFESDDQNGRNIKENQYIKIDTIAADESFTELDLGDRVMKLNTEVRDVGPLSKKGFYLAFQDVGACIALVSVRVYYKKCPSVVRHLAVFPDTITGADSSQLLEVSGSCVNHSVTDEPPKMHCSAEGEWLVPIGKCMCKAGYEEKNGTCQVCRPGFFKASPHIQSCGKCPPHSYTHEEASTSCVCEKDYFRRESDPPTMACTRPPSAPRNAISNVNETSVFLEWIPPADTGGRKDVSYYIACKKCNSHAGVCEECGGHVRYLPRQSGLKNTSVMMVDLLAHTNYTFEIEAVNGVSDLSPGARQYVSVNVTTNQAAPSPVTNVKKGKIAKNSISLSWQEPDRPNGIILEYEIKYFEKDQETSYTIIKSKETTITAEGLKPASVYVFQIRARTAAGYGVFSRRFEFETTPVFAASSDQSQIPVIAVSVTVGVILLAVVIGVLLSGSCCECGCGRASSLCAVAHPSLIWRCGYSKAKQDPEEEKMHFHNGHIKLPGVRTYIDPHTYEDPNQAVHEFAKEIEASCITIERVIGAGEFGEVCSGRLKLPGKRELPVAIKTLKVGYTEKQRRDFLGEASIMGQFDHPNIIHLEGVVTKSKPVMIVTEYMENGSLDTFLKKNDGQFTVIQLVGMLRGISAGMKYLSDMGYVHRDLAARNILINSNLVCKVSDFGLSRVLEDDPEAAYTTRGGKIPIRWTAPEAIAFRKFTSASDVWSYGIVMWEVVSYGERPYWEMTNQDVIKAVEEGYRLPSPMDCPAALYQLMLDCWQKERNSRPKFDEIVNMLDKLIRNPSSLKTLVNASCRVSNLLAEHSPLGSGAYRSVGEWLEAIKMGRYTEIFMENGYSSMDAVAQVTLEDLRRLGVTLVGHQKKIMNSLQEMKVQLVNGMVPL
Description: Induction of stabilization of recombinant EPHA5 (unknown origin) assessed as change in melting temperature by differential scanning fluorimetry assay
Assay [5] has as its target T1, Ephrin type-B receptor 3 (Homo sapiens) (UniProt P54753).
T1 sequence (whole entry): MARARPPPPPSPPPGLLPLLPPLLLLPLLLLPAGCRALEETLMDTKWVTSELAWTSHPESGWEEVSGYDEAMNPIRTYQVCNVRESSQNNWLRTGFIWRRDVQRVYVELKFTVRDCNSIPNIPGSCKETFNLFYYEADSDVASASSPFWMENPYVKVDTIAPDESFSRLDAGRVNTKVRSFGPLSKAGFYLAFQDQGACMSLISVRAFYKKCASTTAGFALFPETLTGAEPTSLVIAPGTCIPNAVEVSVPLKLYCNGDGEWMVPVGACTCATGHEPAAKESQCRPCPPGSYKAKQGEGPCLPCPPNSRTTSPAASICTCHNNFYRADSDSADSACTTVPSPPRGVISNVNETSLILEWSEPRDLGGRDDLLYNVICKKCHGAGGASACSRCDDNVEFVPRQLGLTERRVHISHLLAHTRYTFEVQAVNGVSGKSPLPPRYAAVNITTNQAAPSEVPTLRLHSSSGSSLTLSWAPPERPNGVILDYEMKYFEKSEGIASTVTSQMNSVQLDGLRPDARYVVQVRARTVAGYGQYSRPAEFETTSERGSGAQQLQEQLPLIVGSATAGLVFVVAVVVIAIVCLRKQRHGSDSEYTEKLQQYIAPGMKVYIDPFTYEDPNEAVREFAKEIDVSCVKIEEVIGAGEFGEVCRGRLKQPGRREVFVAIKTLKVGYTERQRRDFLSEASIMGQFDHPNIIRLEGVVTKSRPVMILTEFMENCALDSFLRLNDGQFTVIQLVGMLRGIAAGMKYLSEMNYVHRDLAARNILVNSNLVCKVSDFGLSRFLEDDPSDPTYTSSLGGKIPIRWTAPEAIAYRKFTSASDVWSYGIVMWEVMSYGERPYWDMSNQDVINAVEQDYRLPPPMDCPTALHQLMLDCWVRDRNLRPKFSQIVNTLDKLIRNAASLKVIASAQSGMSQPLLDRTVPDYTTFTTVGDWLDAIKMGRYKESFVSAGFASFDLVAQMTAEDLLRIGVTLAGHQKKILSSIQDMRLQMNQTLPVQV
In words: Induction of stabilization of recombinant EPHB3 (unknown origin) assessed as change in melting temperature by differential scanning fluorimetry assay.

The target in assay [6] is Ephrin type-A receptor 7 (Homo sapiens) (UniProt Q15375). Description: Induction of stabilization of recombinant EPHA7 (unknown origin) assessed as change in melting temperature by differential scanning fluorimetry assay.
In assay [7] the target is T2, Cyclin-G-associated kinase (Homo sapiens) (UniProt O14976).
T2 sequence (whole entry): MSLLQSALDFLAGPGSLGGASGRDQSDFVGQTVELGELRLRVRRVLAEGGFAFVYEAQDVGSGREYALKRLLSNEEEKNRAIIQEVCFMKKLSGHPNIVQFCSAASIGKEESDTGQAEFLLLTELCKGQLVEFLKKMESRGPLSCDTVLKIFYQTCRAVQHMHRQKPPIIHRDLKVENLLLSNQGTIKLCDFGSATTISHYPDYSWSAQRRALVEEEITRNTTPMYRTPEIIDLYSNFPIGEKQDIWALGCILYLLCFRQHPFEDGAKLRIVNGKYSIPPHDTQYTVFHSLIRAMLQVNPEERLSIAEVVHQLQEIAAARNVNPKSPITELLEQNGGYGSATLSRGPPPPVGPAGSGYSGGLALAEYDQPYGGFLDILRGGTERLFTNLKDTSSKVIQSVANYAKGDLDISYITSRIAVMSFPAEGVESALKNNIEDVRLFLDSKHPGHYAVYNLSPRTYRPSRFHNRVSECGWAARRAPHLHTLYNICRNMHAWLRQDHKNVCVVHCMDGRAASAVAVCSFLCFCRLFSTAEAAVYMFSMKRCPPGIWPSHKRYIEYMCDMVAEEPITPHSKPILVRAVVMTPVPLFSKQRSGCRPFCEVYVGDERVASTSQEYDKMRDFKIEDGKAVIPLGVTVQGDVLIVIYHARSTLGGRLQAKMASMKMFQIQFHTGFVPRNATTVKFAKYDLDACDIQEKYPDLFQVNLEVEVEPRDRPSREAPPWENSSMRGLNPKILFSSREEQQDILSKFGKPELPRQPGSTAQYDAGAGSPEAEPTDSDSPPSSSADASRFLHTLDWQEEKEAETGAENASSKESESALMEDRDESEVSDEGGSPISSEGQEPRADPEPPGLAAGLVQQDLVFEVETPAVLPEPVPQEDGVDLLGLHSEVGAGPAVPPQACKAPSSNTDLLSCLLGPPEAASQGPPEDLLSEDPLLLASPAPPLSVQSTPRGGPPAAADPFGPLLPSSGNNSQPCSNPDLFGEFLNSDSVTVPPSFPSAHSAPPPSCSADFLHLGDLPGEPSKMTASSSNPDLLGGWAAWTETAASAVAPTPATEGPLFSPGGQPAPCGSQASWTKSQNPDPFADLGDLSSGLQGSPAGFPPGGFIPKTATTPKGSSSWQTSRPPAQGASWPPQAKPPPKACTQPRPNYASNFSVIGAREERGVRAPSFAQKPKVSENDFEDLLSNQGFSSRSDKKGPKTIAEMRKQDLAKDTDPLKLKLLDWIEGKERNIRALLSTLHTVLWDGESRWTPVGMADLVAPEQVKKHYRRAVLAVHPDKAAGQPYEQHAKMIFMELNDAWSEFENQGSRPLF
Description: Induction of stabilization of recombinant GAK (unknown origin) assessed as change in melting temperature by differential scanning fluorimetry assay

Assay [8] deals with Fibroblast growth factor receptor 1 (Homo sapiens, UniProt P11362).
Fibroblast growth factor receptor 1, sequence (P11362 22-822 limits assumed): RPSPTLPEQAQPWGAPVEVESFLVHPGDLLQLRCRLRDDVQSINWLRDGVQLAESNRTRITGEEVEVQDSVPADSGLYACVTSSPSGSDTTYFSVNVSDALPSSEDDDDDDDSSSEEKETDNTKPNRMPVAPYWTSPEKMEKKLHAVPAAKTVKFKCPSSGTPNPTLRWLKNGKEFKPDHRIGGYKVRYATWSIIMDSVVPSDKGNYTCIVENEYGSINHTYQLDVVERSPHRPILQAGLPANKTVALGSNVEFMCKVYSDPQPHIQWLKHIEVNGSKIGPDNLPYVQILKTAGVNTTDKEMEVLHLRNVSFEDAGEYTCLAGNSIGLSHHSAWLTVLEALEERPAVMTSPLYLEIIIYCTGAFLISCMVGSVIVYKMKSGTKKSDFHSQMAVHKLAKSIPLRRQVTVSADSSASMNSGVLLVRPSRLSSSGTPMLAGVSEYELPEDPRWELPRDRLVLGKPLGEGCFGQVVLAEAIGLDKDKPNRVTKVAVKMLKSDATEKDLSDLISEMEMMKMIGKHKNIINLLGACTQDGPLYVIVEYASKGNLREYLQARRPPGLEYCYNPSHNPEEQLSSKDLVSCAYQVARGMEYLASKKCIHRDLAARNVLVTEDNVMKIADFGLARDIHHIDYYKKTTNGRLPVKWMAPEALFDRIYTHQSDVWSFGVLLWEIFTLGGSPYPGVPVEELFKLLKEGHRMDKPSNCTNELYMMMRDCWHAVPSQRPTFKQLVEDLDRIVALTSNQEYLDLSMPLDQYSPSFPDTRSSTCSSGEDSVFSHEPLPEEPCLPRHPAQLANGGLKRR
Description: Induction of stabilization of recombinant FGFR1 (unknown origin) assessed as change in melting temperature by differential scanning fluorimetry assay
The target of assay [9] is Ephrin type-A receptor 2 (Homo sapiens, UniProt P29317).
Ephrin type-A receptor 2, sequence (P29317 whole entry): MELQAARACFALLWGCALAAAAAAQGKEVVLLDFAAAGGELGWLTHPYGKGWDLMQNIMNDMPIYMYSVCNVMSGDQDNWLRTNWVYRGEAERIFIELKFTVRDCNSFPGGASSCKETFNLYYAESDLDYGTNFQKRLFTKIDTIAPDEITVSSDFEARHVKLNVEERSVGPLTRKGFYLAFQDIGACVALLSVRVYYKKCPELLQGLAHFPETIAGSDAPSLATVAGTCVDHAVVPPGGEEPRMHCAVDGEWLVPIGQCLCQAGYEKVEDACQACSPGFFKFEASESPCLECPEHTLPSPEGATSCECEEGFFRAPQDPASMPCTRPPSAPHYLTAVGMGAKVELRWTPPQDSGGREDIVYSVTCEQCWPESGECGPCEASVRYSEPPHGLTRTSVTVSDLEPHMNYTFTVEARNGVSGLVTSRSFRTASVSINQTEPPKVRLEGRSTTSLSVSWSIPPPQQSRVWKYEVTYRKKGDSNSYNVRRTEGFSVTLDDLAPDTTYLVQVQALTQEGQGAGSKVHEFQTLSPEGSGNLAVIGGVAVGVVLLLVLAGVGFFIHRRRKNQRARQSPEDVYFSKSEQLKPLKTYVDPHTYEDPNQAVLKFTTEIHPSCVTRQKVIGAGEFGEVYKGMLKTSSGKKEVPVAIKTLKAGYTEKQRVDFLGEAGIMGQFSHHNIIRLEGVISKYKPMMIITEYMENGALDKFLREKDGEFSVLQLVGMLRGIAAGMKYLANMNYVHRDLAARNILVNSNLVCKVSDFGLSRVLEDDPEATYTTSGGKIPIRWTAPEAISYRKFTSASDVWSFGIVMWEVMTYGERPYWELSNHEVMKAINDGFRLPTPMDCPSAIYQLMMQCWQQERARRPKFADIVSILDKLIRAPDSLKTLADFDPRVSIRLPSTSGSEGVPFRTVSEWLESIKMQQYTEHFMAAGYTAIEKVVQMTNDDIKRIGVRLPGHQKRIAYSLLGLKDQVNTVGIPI
Description: Induction of stabilization of recombinant EPHA2 (D596 to G900 residues) (unknown origin) expressed in Escherichia coli rosetta BL21(D3)-R3-pRARE2 competent cells assessed as change in melting temperature by differential scanning fluorimetry assay
Assay [10] addresses T3, Ephrin type-B receptor 1 (Homo sapiens) (UniProt P54762).
T3 sequence (whole entry): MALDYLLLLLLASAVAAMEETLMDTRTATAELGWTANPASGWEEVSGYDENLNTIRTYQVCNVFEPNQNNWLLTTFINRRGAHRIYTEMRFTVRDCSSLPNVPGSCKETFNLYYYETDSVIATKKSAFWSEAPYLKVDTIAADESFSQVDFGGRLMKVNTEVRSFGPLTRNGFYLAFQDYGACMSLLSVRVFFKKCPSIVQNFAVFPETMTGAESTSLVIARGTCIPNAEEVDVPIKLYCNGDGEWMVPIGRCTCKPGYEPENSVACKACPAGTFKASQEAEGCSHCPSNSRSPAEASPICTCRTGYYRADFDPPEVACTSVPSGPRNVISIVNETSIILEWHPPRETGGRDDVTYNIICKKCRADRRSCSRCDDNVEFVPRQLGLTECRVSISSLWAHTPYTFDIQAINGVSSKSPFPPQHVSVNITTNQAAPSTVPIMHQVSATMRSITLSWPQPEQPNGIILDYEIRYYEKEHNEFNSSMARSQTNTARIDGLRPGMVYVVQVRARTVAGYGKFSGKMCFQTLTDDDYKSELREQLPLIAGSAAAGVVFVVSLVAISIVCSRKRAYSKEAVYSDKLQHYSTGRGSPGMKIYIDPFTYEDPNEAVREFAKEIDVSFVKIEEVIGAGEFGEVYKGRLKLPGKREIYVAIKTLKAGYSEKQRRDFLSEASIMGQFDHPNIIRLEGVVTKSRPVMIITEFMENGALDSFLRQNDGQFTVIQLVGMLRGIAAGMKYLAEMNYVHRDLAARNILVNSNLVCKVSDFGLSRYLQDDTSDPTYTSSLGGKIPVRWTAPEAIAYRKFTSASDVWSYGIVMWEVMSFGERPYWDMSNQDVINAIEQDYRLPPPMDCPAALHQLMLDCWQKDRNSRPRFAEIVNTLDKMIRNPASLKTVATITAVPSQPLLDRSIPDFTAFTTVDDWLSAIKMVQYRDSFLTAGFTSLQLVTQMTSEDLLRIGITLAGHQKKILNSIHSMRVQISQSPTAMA
Description: Induction of stabilization of recombinant EPHB1 (unknown origin) assessed as change in melting temperature by differential scanning fluorimetry assay.

For the compound `COc1cc(-c2cnc3nc2NCCCNS(=O)(=O)c2cc(ccc2OCC(N)=O)N3)ccc1F`, the deltaTm was found to be 2.3 K in [1]; 1.5 K in assay [2]; 0.8 K in assay [3]; 3.9 K in [4]; 2.5 K in [5]; 0.7 K in [6]. The deltaTm turned out to be 6.3 K in assay [7], 0.7 K in assay [8], 3.5 K in assay [9] and 1.5 K in assay [10].
Regarding `O=S1(=O)NCCCNc2nc(ncc2-c2ccc(F)c(C(F)(F)F)c2)Nc2cccc1c2`, the deltaTm stood at 0.7 K in [1]; 2.1 K in [2]; 1.8 K in assay [3]; 1.6 K in assay [4]; 0.6 K in assay [5]; 0.9 K in assay [6]. The deltaTm is 3.1 K in assay [7], 1.3 K in assay [8], 3 K in [9] and 0.6 K in [10].
With `O=S1(=O)NCCCNc2nc(ncc2-c2cc(Cl)c(F)cc2F)Nc2cccc1c2`, the deltaTm in assay [1] came to 3.2 K; in [2], 4.7 K; in assay [3], 4.3 K; in assay [4], 5.7 K; in [5], 4.3 K; in [6], 0.1 K. For the same compound, the deltaTm in assay [7] is 5.8 K; in [8], 3.1 K; in assay [9] it was 7.5 K; in [10], 3.3 K.
With `Cc1cc(Cl)c(Cl)cc1-c1cnc2nc1NCCCNS(=O)(=O)c1cccc(c1)N2`, the deltaTm in assay [1] is 2.6 K; in assay [2], 3.6 K; in assay [3], 2.7 K; in assay [4], 3.5 K; in assay [5], 0 K; in assay [6], 0.5 K. The deltaTm in assay [7] is 4.9 K; in assay [8] it was 2.4 K; in assay [9] it was 6.2 K; in [10] it was 3.2 K.
Regarding `COc1cc(-c2cnc3nc2NCCCNS(=O)(=O)c2cccc(c2)N3)cc(F)c1F`, the deltaTm in [1] is 1.2 K; in assay [2] it was 2.9 K; in assay [3], 3 K; in [4], 1.9 K; in assay [5] it was 2.3 K; in assay [6], -3.3 K. For the same compound, the deltaTm in assay [7] amounted to 4.1 K; in assay [8] it was 2.2 K; in assay [9] it was 5 K; in assay [10], 2.7 K.
Turning to `COC(=O)c1cc(-c2cnc3nc2NCCCNS(=O)(=O)c2cccc(c2)N3)ccc1F`, the deltaTm in assay [1] is -0.6 K; in assay [2], 3.1 K; in assay [3], 6.4 K; in [4], -0.7 K; in [5], 1.5 K; in assay [6] it was -2.8 K. In addition, the deltaTm in assay [7] is -1.3 K; in assay [8], 3.5 K; in assay [9] it was 2.1 K; in assay [10] it was 1.3 K.
Take `COc1cc(-c2cnc3nc2NCCCNS(=O)(=O)c2cc(ccc2C)N3)ccc1F`: the deltaTm in assay [1] was 3.6 K; in assay [2], 3 K; in assay [3], -1.3 K; in [4] it was 5.5 K; in assay [5], 6.1 K; in assay [6], 2 K. Besides, the deltaTm was 6.4 K in assay [7], 2.7 K in [8], 7.6 K in assay [9] and 4.2 K in assay [10].
As to `O=S1(=O)NCCCNc2nc(ncc2-c2cccc(Cl)c2F)Nc2cccc1c2`, the deltaTm in [1] was 3.4 K; in assay [2] it was 5.3 K; in assay [3], 6 K; in assay [4], 4.6 K; in assay [5] it was 3.7 K; in assay [6], 1.8 K. Moreover, the deltaTm in assay [7] was 5.3 K; in assay [8], 4 K; in assay [9], 7 K; in assay [10], 3.1 K.
Turning to `CC(C)Oc1cc(-c2cnc3nc2NCCCNS(=O)(=O)c2cccc(c2)N3)ccc1F`, the deltaTm was found to be 0.7 K in assay [1]; 1.5 K in assay [2]; 2.1 K in [3]; 0.2 K in [4]; 3.4 K in assay [5]; 0.6 K in assay [6]. Further, the deltaTm was found to be 1.6 K in assay [7], 1 K in assay [8], 0.7 K in assay [9] and 0 K in [10].
